The results in this text go back to patent publication US4481149A, “Fluorine-containing phenyl benzoate compounds, and their production and use” (Daikin Kogyo Co., Ltd., priority 1978, dated 1984).

The nature of the data set: Temperature range of liquid crystal (MR). The format is physicochemical. The following applies: Table 1.

On to `Cc1ccc(OC(=O)c2ccc(C(F)(F)C(F)(F)C(F)(F)C(F)(F)C(F)(F)C(F)(F)C(F)(F)C(F)(F)F)cc2)cc1` [Example 17], for which the “Temperature (MR) Range of liquid crystal” value (monotropic) was 111-112 °C.
Turning to `CCCCCCCOc1ccc(C(=O)Oc2ccc(C(F)(F)F)cc2)cc1` [Example 9, p'-trifluoromethylphenyl p-n-heptyloxybenzoate], the “Temperature (MR) Range of liquid crystal” value was 62.9-74.3 °C.
The same measure, in the same setting: under `N#Cc1ccc(OC(=O)c2ccc(C(F)(F)C(F)(F)C(F)(F)C(F)(F)C(F)(F)C(F)(F)C(F)(C(F)(F)F)C(F)(F)F)cc2)cc1` [Example 14] stands 130.7-140.7 °C; under `N#Cc1ccc(OC(=O)c2ccc(C(F)(F)C(F)(F)C(F)(F)C(F)(F)C(F)(F)C(F)(F)C(F)(F)C(F)(F)F)cc2)cc1` [Example 16], 118-145 °C.
With `CCCCc1ccc(C(=O)Oc2ccc(C(F)(F)F)cc2)cc1` [Example 1, p'-trifluoromethylphenyl p-n-butylbenzoate], the “Temperature (MR) Range of liquid crystal” value (monotropic) worked out at 67.8 °C.
`CCCCCCOc1ccc(C(=O)Oc2ccc(C(F)(F)F)cc2)cc1` [Example 8, p'-trifluoromethylphenyl p-n-hexyloxybenzoate]: the “Temperature (MR) Range of liquid crystal” value was 74.7-76.5 °C.
The same measure, in the same setting: under `N#Cc1ccc(OC(=O)c2ccc(C(F)(F)C(F)(F)C(F)(F)C(F)(F)C(F)(F)C(F)(F)F)cc2)cc1` [Example 15] stands 99.8-123.3 °C; under `N#Cc1ccc(OC(=O)c2ccc(C(F)(F)C(F)(F)C(F)(C(F)(F)F)C(F)(F)F)cc2)cc1` [Example 12, p'-Cyanophenyl p-(3-trifluoromethylperfluorobutyl)benzoate], 90.0-98.5 °C.
For the molecule `CCCCOc1ccc(C(=O)Oc2ccc(C(F)(F)F)cc2)cc1` [C4 H9 O / CF3], the “Temperature (MR) Range of liquid crystal” value (monotropic) turned out to be 93.4 °C.
Turning to `N#Cc1ccc(OC(=O)c2ccc(C(F)(F)C(F)(F)C(F)(F)C(F)(F)C(F)(C(F)(F)F)C(F)(F)F)cc2)cc1` [Example 13], the “Temperature (MR) Range of liquid crystal” value was 109.6-121.3 °C.
Turning to `CCCCCCCc1ccc(C(=O)Oc2ccc(C(F)(F)F)cc2)cc1` [Example 4, p'-trifluoromethylphenyl p-n-heptylbenzoate], the “Temperature (MR) Range of liquid crystal” value (monotropic) came out at 61.0 °C.
With `O=C(Oc1ccc(C(F)(F)F)cc1)c1ccc(C(F)(F)C(F)(F)C(F)(C(F)(F)F)C(F)(F)F)cc1` [Example 19], the “Temperature (MR) Range of liquid crystal” value (monotropic) is 67.5-68.7 °C.
On the same count and under the same terms, under `CCCCCCCCc1ccc(C(=O)Oc2ccc(C(F)(F)F)cc2)cc1` [Example 5, p'-trifluoromethylphenyl p-n-octylbenzoate] stands 58.5 °C; under `CCCCCc1ccc(C(=O)Oc2ccc(C(F)(F)F)cc2)cc1` [Example 2, p'-trifluoromethylphenyl p-n-pentylbenzoate], 66.8 °C; under `CCCCCc1ccc(OC(=O)c2ccc(C(F)(F)C(F)(F)C(F)(C(F)(F)F)C(F)(F)F)cc2)cc1` [Example 18], 57-58 °C.
Same read-out and setting: under `CCCCCCc1ccc(C(=O)Oc2ccc(C(F)(F)F)cc2)cc1` [Example 3, p'-trifluoromethylphenyl p-n-hexylbenzoate] stands 58.8 °C.
Still for that read-out and setting: under `CCCCCOc1ccc(C(=O)Oc2ccc(C(F)(F)F)cc2)cc1` [Example 7, p'-trifluoromethylphenyl p-n-pentyloxybenzoate] stands 78.5 °C.
In the case of `O=C(Oc1ccc([N+](=O)[O-])cc1)c1ccc(C(F)(F)C(F)(F)C(F)(C(F)(F)F)C(F)(F)F)cc1` [Example 20], the “Temperature (MR) Range of liquid crystal” value is 68.6-79.2 °C.
As for `CCCCCCCCOc1ccc(C(=O)Oc2ccc(C(F)(F)F)cc2)cc1` [Example 10, p'-trifluoromethylphenyl p-n-octyloxybenzoate], the “Temperature (MR) Range of liquid crystal” value was 62.5-72.5 °C.
